Drawing on patent publication US20240190880A1 (THE REGENTS OF THE UNIVERSITY OF MICHIGAN, priority 2021, published 2024), this text covers DC50 for 15 compounds.

A word on the DC50: it is the midpoint of the concentration-degradation curve.

Where only a bound is given, the exact number is not on record here.

The first test concerns the target T1, ER (Homo sapiens, UniProt P03372).
T1 construct: host or cells: T47D and MCF7 human breast cancer cells
T1 sequence (P03372 1-595): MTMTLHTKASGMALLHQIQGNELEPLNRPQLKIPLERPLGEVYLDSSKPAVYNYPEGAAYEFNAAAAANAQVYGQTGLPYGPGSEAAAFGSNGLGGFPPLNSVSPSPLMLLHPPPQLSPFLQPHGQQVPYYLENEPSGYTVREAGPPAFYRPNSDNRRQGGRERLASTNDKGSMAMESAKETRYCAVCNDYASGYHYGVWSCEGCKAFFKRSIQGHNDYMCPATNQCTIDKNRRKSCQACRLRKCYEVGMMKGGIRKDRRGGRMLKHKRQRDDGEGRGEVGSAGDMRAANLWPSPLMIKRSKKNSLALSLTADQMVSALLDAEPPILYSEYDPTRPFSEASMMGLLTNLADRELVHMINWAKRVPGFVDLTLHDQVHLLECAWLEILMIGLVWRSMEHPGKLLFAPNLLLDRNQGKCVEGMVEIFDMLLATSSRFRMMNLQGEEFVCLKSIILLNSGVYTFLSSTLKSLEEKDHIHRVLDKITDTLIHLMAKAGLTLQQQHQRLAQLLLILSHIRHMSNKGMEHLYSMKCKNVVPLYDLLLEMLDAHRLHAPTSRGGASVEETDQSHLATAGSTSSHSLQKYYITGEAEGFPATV
The test is described as follows: ER degradation activity, in-cell western blot analysis in T47D cells. The settings on record: 16 hours, Table A does not say which cell line (T47D or MCF7), read-out: Potency (DC50). It is filed as cell-based. In short, it runs like this: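 ER protein remaining after 16 h compound exposure is quantified in T47D cells by in-cell western, with a no-primary-antibody background control. Values are percentages of DMSO-treated signal.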
For the compound `C[C@@H]1Cc2c([nH]c3ccccc23)[C@H](c2c(F)cc(C(=O)N3CCC4(CCC(CN5Cc6cc7c(cc6C5)C(=O)N(C5CCC(=O)NC5=O)C7=O)CC4)CC3)cc2F)N1CC(F)F` (stereo partly drawn) [E 379, 6-((3-(4-((1S,3R)-2-(2,2-difluoroethyl)-3-methyl-2,3,4,9-tetrahydro-1H-pyrido[3,4-b]indol-1-yl)-3,5-difluorobenzoyl)-3-azaspiro[5.5]undecan-9-yl)methyl)-2-(2,6-dioxopiperidin-3-yl)-6,7-dihydropyrrolo[3,4-f]isoindole-1,3(2H,5H)-dione], the DC50 is greater than 0.1 µM.

Take `O=C1CCC(N2C(=O)c3cc4c(cc3C2=O)CN(CC(=O)N2CCC3(CC2)CCN(c2ccc([C@@H]5c6ccc(O)cc6CC[C@@H]5c5ccccc5)cc2)CC3)CC4)C(=O)N1` (mixture of isomers) [E 162, rac-2-(2,6-dioxopiperidin-3-yl)-6-(2-(9-(4-((1R,2S)-6-hydroxy-2-phenyl-1,2,3,4-tetrahydronaphthalen-1-yl)phenyl)-3,9-diazaspiro[5.5]undecan-3-yl)-2-oxoethyl)-5,6,7,8-tetrahydro-1H-pyrrolo[3,4-g]isoquinoline-1,3(2H)-dione]: the DC50 lay in the range of 0.01 to 0.1 µM.

Consider `C[C@@H]1Cc2c([nH]c3ccccc23)[C@@H](c2c(F)cc(C3CCN(C(=O)[C@H]4CC[C@H](N5Cc6cc7c(cc6C5)C(=O)N(C5CCC(=O)NC5=O)C7=O)CC4)CC3)cc2F)N1CC(F)F` (stereo partly drawn) [E 393, 6-((1R,4r)-4-(4-(4-((1R,3R)-2-(2,2-difluoroethyl)-3-methyl-2,3,4,9-tetrahydro-1H-pyrido[3,4-b]indol-1-yl)-3,5-difluorophenyl)piperidine-1-carbonyl)cyclohexyl)-2-(2,6-dioxopiperidin-3-yl)-6,7-dihydropyrrolo[3,4-f]isoindole-1,3(2H,5H)-dione], for which the DC50 was less than 0.01 µM.

Turning to `O=C1CCC(N2C(=O)c3cc4c(cc3C2=O)CN(CC(=O)N2CC3(CCN(c5ccc([C@@H]6c7ccc(O)cc7CC[C@@H]6c6ccccc6)c(F)c5)CC3)C2)C4)C(=O)N1` (mixture of isomers) [E 174, Rac-2-(2,6-dioxopiperidin-3-yl)-6-(2-(7-(3-fluoro-4-((1S,2S)-6-hydroxy-2-phenyl-1,2,3,4-tetrahydronaphthalen-1-yl)phenyl)-2,7-diazaspiro[3.5]nonan-2-yl)-2-oxoethyl)-6,7-dihydropyrrolo[3,4-f]isoindole-1,3(2H,5H)-dione], the DC50 lay within 0.01 to 0.1 µM.

On to `C[C@@H]1Cc2c([nH]c3ccccc23)[C@@H](c2c(F)cc(N3CCC(CN4CCC(N5Cc6cc7c(cc6C5)C(=O)N(C5CCC(=O)NC5=O)C7=O)C4)CC3)cc2F)N1CC(F)F` (stereo partly drawn) [E 129, 6-(1-((1-(4-((1R,3R)-2-(2,2-difluoroethyl)-3-methyl-2,3,4,9-tetrahydro-1H-pyrido[3,4-b]indol-1-yl)-3,5-difluorophenyl)piperidin-4-yl)methyl)pyrrolidin-3-yl)-2-(2,6-dioxopiperidin-3-yl)-6,7-dihydropyrrolo[3,4-f]isoindole-1,3(2H,5H)-dione], for which the DC50 was less than 0.01 µM.

Take `O=C1CCC(N2C(=O)c3cc4c(cc3C2=O)CN(C(=O)CN2CCC3(CC2)CCN(c2ccc([C@@H]5c6ccc(O)cc6CC[C@@H]5c5ccccc5)cc2)CC3)CC4)C(=O)N1` (mixture of isomers) [E 161, rac-2-(2,6-dioxopiperidin-3-yl)-6-(2-(9-(4-((1R,2S)-6-hydroxy-2-phenyl-1,2,3,4-tetrahydronaphthalen-1-yl)phenyl)-3,9-diazaspiro[5.5]undecan-3-yl)acetyl)-5,6,7,8-tetrahydro-1H-pyrrolo[3,4-g]isoquinoline-1,3(2H)-dione]: the half-maximal degradation concentration (DC50) was greater than 0.1 µM.

Consider `C[C@@H]1Cc2c([nH]c3ccccc23)[C@@H](c2c(F)cc(N3CCCC(CN4CCC(C(=O)N5Cc6cc7c(cc6C5)C(=O)N(C5CCC(=O)NC5=O)C7=O)CC4)C3)cc2F)N1CC(F)F` (stereo partly drawn) [E 58, 6-(1-((1-(4-((1R,3R)-2-(2,2-difluoroethyl)-3-methyl-2,3,4,9-tetrahydro-1H-pyrido[3,4-b]indol-1-yl)-3,5-difluorophenyl)piperidin-3-yl)methyl)piperidine-4-carbonyl)-2-(2,6-dioxopiperidin-3-yl)-6,7-dihydropyrrolo[3,4-f]isoindole-1,3(2H,5H)-dione], for which the DC50 is 0.01 to 0.1 µM.

Take `C[C@@H]1Cc2c([nH]c3ccccc23)[C@@H](c2c(F)cc(N3CCC(CN4CCC(CN5Cc6cc7c(cc6C5)C(=O)N(C5CCC(=O)NC5=O)C7=O)CC4)CC3)cc2F)N1CC(F)F` (stereo partly drawn) [E 128, 6-((1-((1-(4-((1R,3R)-2-(2,2-difluoroethyl)-3-methyl-2,3,4,9-tetrahydro-1H-pyrido[3,4-b]indol-1-yl)-3,5-difluorophenyl)piperidin-4-yl)methyl)piperidin-4-yl)methyl)-2-(2,6-dioxopiperidin-3-yl)-6,7-dihydropyrrolo[3,4-f]isoindole-1,3(2H,5H)-dione]: the 50% degradation concentration (DC50) is less than 0.01 µM.

As for `O=C1CCC(N2C(=O)c3cc4c(cc3C2=O)CN([C@H]2CC[C@H](C(=O)N3CC(Oc5ccc([C@H]6c7ccc(O)cc7CC[C@H]6c6ccccc6)cc5)C3)CC2)C4)C(=O)N1` (stereo partly drawn) [E 385, 2-(2,6-dioxopiperidin-3-yl)-6-((1S,4r)-4-(3-(4-((1S,2R)-6-hydroxy-2-phenyl-1,2,3,4-tetrahydronaphthalen-1-yl)phenoxy)azetidine-1-carbonyl)cyclohexyl)-6,7-dihydropyrrolo[3,4-f]isoindole-1,3(2H,5H)-dione], the DC50 was less than 0.01 µM.

For the compound `C[C@@H]1Cc2c([nH]c3ccccc23)[C@@H](c2ccc(C3CCC(C(=O)N4CCC(N5Cc6cc7c(cc6C5)C(=O)N(C5CCC(=O)NC5=O)C7=O)CC4)CC3)nc2)N1CC(F)F` (stereo partly drawn) [E 319, 6-(1-(4-(5-((1R,3R)-2-(2,2-difluoroethyl)-3-methyl-2,3,4,9-tetrahydro-1H-pyrido[3,4-b]indol-1-yl)pyridin-2-yl)cyclohexane-1-carbonyl)piperidin-4-yl)-2-(2,6-dioxopiperidin-3-yl)-6,7-dihydropyrrolo[3,4-f]isoindole-1,3(2H,5H)-dione], the DC50 is greater than 0.1 µM.

Regarding `C[C@@H]1Cc2c([nH]c3ccccc23)[C@@H](c2c(F)cc(N3CC(C(=O)N4CCC(N5Cc6cc7c(cc6C5)C(=O)N(C5CCC(=O)NC5=O)C7=O)CC4)C3)cc2F)N1CC(F)F` (stereo partly drawn) [E 122, 6-(1-(1-(4-((1R,3R)-2-(2,2-difluoroethyl)-3-methyl-2,3,4,9-tetrahydro-1H-pyrido[3,4-b]indol-1-yl)-3,5-difluorophenyl)azetidine-3-carbonyl)piperidin-4-yl)-2-(2,6-dioxopiperidin-3-yl)-6,7-dihydropyrrolo[3,4-f]isoindole-1,3(2H,5H)-dione], the DC50 was less than 0.01 µM.

The same test, now with this note: compounds 16 hours, Table A does not say whether T47D or MCF7, read-out: Potency (DC50).
Take `O=C1CCC(N2C(=O)c3cc4c(cc3C2=O)CN(CC(=O)N2CCC3(CC2)CCN(c2ccc([C@@H]5c6ccc(O)cc6OC[C@@H]5c5ccccc5)cc2)CC3)C4)C(=O)N1` (mixture of isomers) [E 467, 2-(2,6-dioxopiperidin-3-yl)-6-(2-(9-(4-(7-hydroxy-3-phenylchroman-4-yl)phenyl)-3,9-diazaspiro[5.5]undecan-3-yl)-2-oxoethyl)-6,7-dihydropyrrolo[3,4-f]isoindole-1, 3(2H,5H)-dione]: the half-maximal degradation concentration (DC50) was greater than 0.1 µM.

With `O=C1CCC(N2C(=O)c3cc4c(cc3C2=O)CN(CC(=O)N2CCC3(CC2)CCN(c2ccc([C@H]5c6ccc7[nH]ncc7c6CC[C@H]5c5ccccc5)cc2)CC3)C4)C(=O)N1` (stereo partly drawn) [E 422, 2-(2,6-dioxopiperidin-3-yl)-6-(2-oxo-2-(9-(4-((6S,7R)-7-phenyl-6,7,8,9-tetrahydro-3H-benzo[e]indazol-6-yl)phenyl)-3,9-diazaspiro[5.5]undecan-3-yl)ethyl)-6,7-dihydropyrrolo[3,4-f]isoindole-1,3(2H,5H)-dione], the 50% degradation concentration (DC50) was greater than 0.1 µM.

As for `C[C@@H]1Cc2cc(O)ccc2[C@@H](c2c(F)cc(OCC3CCC4(CC3)CN(C(=O)CN3Cc5cc6c(cc5C3)C(=O)N(C3CCC(=O)NC3=O)C6=O)C4)cc2F)N1CC(F)F` (stereo partly drawn) [E 453, 6-(2-(7-((4-((1S,3R)-2-(2,2-difluoroethyl)-6-hydroxy-3-methyl-1,2,3,4-tetrahydroisoquinolin-1-yl)-3,5-difluorophenoxy)methyl)-2-azaspiro[3.5]nonan-2-yl)-2-oxoethyl)-2-(2,6-dioxopiperidin-3-yl)-6,7-dihydropyrrolo[3,4-f]isoindole-1,3(2H,5H)-dione], the 50% degradation concentration (DC50) is less than 0.01 µM.

In the case of `COc1c2c(cc3c1C(=O)N(C1CCC(=O)NC1=O)C3=O)CN(CC(=O)N1CCC3(CC1)CCN(c1ccc([C@@H]4c5ccc(O)cc5CC[C@@H]4c4ccccc4)cc1)CC3)C2` (stereo partly drawn) [E 420, 2-(2,6-dioxopiperidin-3-yl)-6-(2-(9-(4-((1R,2S)-6-hydroxy-2-phenyl-1,2,3,4-tetrahydronaphthalen-1-yl)phenyl)-3,9-diazaspiro[5.5]undecan-3-yl)-2-oxoethyl)-4-methoxy-6,7-dihydropyrrolo[3,4-f]isoindole-1,3(2H,5H)-dione], the DC50 is 0.01 to 0.1 µM.
